This is an account of results in patent US4705799A, “Aminomethyl oxooxazolidinyl benzenes useful as antibacterial agents” (E. I. Du Pont de Nemours and Company, priority 1985, dated 1987).

Values after ≈ are worked out from the molar mass of the structure shown. A value given as a limit tells only on which side of the number the result lay.

The subject of assay [1] is Staphylococcus epidermidis. In words: In vitro broth dilution minimal inhibitory concentration (standard microdilution method). The following applies: Mueller-Hinton broth, 24-hour; for MIC: 24 h, read-out: Microdilution Broth MIC. Format: cell-based. In general terms: In broth dilution the organism is exposed to a series of concentrations in liquid medium.
Assay [2] concerns Staphylococcus aureus. As to the kind of experiment: In vivo efficacy of compounds administered subcutaneously in mouse intraperitoneal infections. The following applies: sc, 168 h; mouse i.p. Staphylococcus aureus infection; subcutaneous; dosed at infection and 4 h post-infection; 7 days; read-out: ED50 (50 percent effective dose). As for the experimental part:
(§1) Determinations of in vivo efficacy are performed by inoculating mice intraperitoneally with cultures of the infecting organism diluted to produce 90-100% mortality in control animals within twenty-four hours. The diluents used were trypticase soy broth for E. coli and 5% aqueous hog gastric mucin for Staphylococcus aureus infections. The compounds are dissolved or suspended in 0.25% aqueous Methocel® (Methocel®: Hydroxypropyl Methylcellulose E15 Premium, Dow Chemical Company) for oral administration or sterile distilled water containing 5% dimethylsulfoxide (Fisher Scientific Company, Fairlawn, N.J.) for subcutaneous administration. The mice are dosed at the time of infection and again at four hours post-infection. Mortality is recorded daily until test termination seven days post infection and the 50 percent effective dose, ED50, is calculated by the Reed-Muench method (Reed, L. G. and Muench, H., "A simple method of estimating fifty percent end points," American Journal of Hygiene, 27, 493-497 (1938).

The subject of assay [3] is Escherichia coli. As to the kind of experiment: In vivo efficacy of orally administered compounds in mouse intraperitoneal infections. To be noted: mouse i.p. Escherichia coli infection, oral, dosed at infection and 4 h post-infection, 7 days; for ED50: 168 h, read-out: ED50 (50 percent effective dose). As for the experimental part: as §1
Assay [4] concerns Staphylococcus aureus. The assay is described as above. The following applies: mouse i.p. Staphylococcus aureus infection, oral, dosed at infection and 4 h post-infection, 7 days; for ED50: Staphylococcus aureus, po, 168 h, read-out: ED50 (50 percent effective dose). As for the experimental part:
as §1

Assay [5] deals with Escherichia coli. As to the kind of experiment: In vitro broth dilution minimal inhibitory concentration (standard microdilution method). Format: cell-based. To be noted: Escherichia coli, Mueller-Hinton broth, 24-hour; for MIC: read-out: Microdilution Broth MIC.

In general, MIC refers to the smallest concentration in the dilution series that meets the test's criterion for growth inhibition. As a reminder, the ED50 is the dose that gives a 50% effect, or the effect in half of the subjects. Consider `CS(=O)(=O)c1ccc(N2CC(CN)OC2=O)cc1` (single isomer, unassigned) [Example 11, (l)-5-Aminomethyl-3-[4-(methylsulfonyl)phenyl]-2-oxazolidinone], for which the MIC (in assay [1]; in the assay on Escherichia coli [5]) was over 100 µg/mL throughout. The values for the ED50 in the assay on Staphylococcus aureus [2], in the assay on Escherichia coli [3] and in the assay on Staphylococcus aureus [4] were 16.4 mg/kg, 47.4 mg/kg and 29.9 mg/kg, respectively.
`CC(=O)NCC1CN(c2ccc(S(C)(=O)=O)cc2)C(=O)O1` (single isomer, unassigned) [Example 23, (l)-N-[3-[4-(Methylsulfonyl)phenyl]-2-oxooxazolidin-5-ylmethyl]acetamide]: the MIC in assay [1] came out at 3.2 µg/mL (≈ 10.2 µM); with Escherichia coli [5], 25 µg/mL (≈ 80 µM). Moreover, the results for the ED50 in the assay with Escherichia coli [3] and in the assay with Staphylococcus aureus [4] were 14 mg/kg and 3.3 mg/kg, respectively.
With `CSc1ccc(N2CC(CNC(C)=O)OC2=O)cc1` (single isomer, unassigned) [Example 31, (l)-N-[3-[4-(methylthio)phenyl]-2-oxooxazolidin-5-ylmethyl]acetamide], the MIC in assay [1] is 3.9 µg/mL (≈ 13.9 µM); in the assay on Escherichia coli [5] it was over 200 µg/mL. Besides, the ED50 is under 4.4 mg/kg with Staphylococcus aureus [2], 19.6 mg/kg with Escherichia coli [3] and 3.5 mg/kg in the assay with Staphylococcus aureus [4].
On the same counts, the results for `COC(=O)NCC1CN(c2ccc(SC)cc2)C(=O)O1` (single isomer, unassigned) [Example 32, (l)-N-[3-[4-(methylthio)phenyl]-2-oxooxazolidin-5-ylmethyl]carbamic acid, methyl ester] are 12.5 µg/mL (≈ 42.2 µM), over 200 µg/mL, under 4.4 mg/kg, 70.9 mg/kg and 3.5 mg/kg.
`CC(=O)NCC1CN(c2ccc(C(C)C)cc2)C(=O)O1` (single isomer, unassigned) [Example 51, (l)-N-[3-(4-isopropylphenyl)-2-oxooxazolidin-5-ylmethyl]acetamide]: the MIC was 3.1 µg/mL (≈ 11.2 µM) in assay [1] and over 200 µg/mL in the assay on Escherichia coli [5]. For the same compound, the ED50 turned out to be 62.9 mg/kg in the assay on Escherichia coli [3] and 6.4 mg/kg in the assay on Staphylococcus aureus [4].
On the same counts, the results for `COC(=O)NCC1CN(c2ccc([S+](C)[O-])cc2)C(=O)O1` (single isomer, unassigned) [Example 121, (l)-N-[3-[4-(Methylsulfinyl)phenyl]-2-oxooxazolidin-5-ylmethyl]carbamic acid, methyl ester] are 18.8 µg/mL (≈ 60.2 µM), over 200 µg/mL, 55.9 mg/kg and 2.5 mg/kg.
On to `CC(=O)NCC1CN(c2ccccc2[N+](=O)[O-])C(=O)O1` (single isomer, unassigned) [Example 148, (l)-N-[3-(2-Nitrophenyl)-2-oxooxazolidin-5-ylmethyl]acetamide], for which the results for the MIC (in assay [1]; in the assay on Escherichia coli [5]) were 200 µg/mL (≈ 716 µM) and over 200 µg/mL, respectively. Besides, the results for the ED50 in the assay with Staphylococcus aureus [2], in the assay with Escherichia coli [3] and with Staphylococcus aureus [4] were 21.5 mg/kg, over 120 mg/kg and 21 mg/kg, respectively.
On the same counts, the results for `CC(=O)NCC1CN(c2ccc(N)cc2)C(=O)O1` (single isomer, unassigned) [Example 149, (l)-N-[3-(4-Aminophenyl)-2-oxooxazolidin-5-ylmethyl]acetamide] are 100 µg/mL (≈ 401 µM), over 200 µg/mL, 10.3 mg/kg, over 120 mg/kg and 20.2 mg/kg.
On the same counts, the results for `CC(=O)NCC1CN(c2ccc(SC(C)=O)cc2)C(=O)O1` (single isomer, unassigned) [Example 152, (l)-N-[3-[4-(Acetylthio)phenyl]-2-oxooxazolidin-5-ylmethyl]acetamide] are over 200 µg/mL, over 200 µg/mL, under 2.5 mg/kg, 24.8 mg/kg and 4.4 mg/kg.
On the same counts, the results for `COC(=O)NCC1CN(c2ccc(SC(C)=O)cc2)C(=O)O1` (single isomer, unassigned) [Example 155] are over 200 µg/mL, over 200 µg/mL, under 4.4 mg/kg, 82.2 mg/kg and 3 mg/kg.
Regarding `COC(=O)NCC1CN(c2ccc(S)cc2)C(=O)O1` (single isomer, unassigned) [Example 156, (l)-[3-(4-Mercaptophenyl)-2-oxooxazolidin-5-ylmethyl]carbamic acid, methyl ester], the MIC (in assay [1]; in the assay with Escherichia coli [5]) was over 200 µg/mL throughout. Besides, the values for the ED50 in the assay on Staphylococcus aureus [2], in the assay on Escherichia coli [3] and in the assay on Staphylococcus aureus [4] were under 4.4 mg/kg, over 120 mg/kg and 4.5 mg/kg, respectively.
As to `CCC(=O)NCC1CN(c2ccc(S(C)(=O)=O)cc2)C(=O)O1` (stereo not drawn) [Example 27], the figures for the MIC (in assay [1]; in the assay on Escherichia coli [5]) were 6.3 µg/mL (≈ 19.3 µM) and 50 µg/mL (≈ 153 µM), respectively. The ED50 was 37 mg/kg in the assay with Escherichia coli [3] and 8 mg/kg in the assay with Staphylococcus aureus [4].
Turning to `CCOC(=O)NCC1CN(c2ccc(SC)cc2)C(=O)O1` (stereo not drawn) [Example 33], the MIC was 50 µg/mL (≈ 161 µM) in assay [1] and over 200 µg/mL in the assay with Escherichia coli [5]. The ED50 was 8.6 mg/kg in the assay on Staphylococcus aureus [2], over 120 mg/kg in the assay with Escherichia coli [3] and 12.2 mg/kg in the assay with Staphylococcus aureus [4].
On the same counts, the results for `CC(=O)NCC1CN(c2ccc(C(F)(F)F)cc2)C(=O)O1` (stereo not drawn) [Example 41] are 12.5 µg/mL (≈ 41.4 µM), over 200 µg/mL, 6.1 mg/kg, over 120 mg/kg and 5.3 mg/kg.
Take `COC(=O)NCC1CN(c2ccc(C(C)C)cc2)C(=O)O1` (stereo not drawn) [Example 52]: the “Microdilution Broth MIC” value in assay [1] was 6.3 µg/mL; with Escherichia coli [5] it was over 200.0 µg/mL. In addition, the “ED50 (50 percent effective dose)” value with Escherichia coli [3] is over 120.0 mg/kg; in the assay with Staphylococcus aureus [4] (10080 min), 4.9 mg/kg.
For the compound `CC(=O)NCC1CN(c2ccc(C#N)cc2)C(=O)O1` (stereo not drawn) [Example 59], the MIC in assay [1] is 100 µg/mL (≈ 386 µM); in the assay on Escherichia coli [5], over 200 µg/mL. For the same compound, the results for the ED50 with Escherichia coli [3] and in the assay with Staphylococcus aureus [4] were 88 mg/kg and 4.3 mg/kg, respectively.
With `CC(=O)NCC1CN(c2ccc3c(c2)OCO3)C(=O)O1` (stereo not drawn) [Example 62], the MIC in assay [1] is 50 µg/mL (≈ 180 µM); in the assay with Escherichia coli [5] it was over 200 µg/mL. Also, the ED50 was over 120 mg/kg in the assay with Escherichia coli [3] and 19.1 mg/kg in the assay on Staphylococcus aureus [4].
On the same counts, the results for `C=CC(=O)NCC1CN(c2ccc(S(C)(=O)=O)cc2)C(=O)O1` (stereo not drawn) [Example 69] are 9.4 µg/mL (≈ 29 µM), 150 µg/mL (≈ 462 µM), 65.7 mg/kg and 11.9 mg/kg.
With `COC(=O)NCC1CN(c2ccc(Cl)cc2)C(=O)O1` (stereo not drawn) [Example 84], the MIC (in assay [1]; in the assay with Escherichia coli [5]) was over 128 µg/mL in each case. The figures for the ED50 with Staphylococcus aureus [2], with Escherichia coli [3] and in the assay with Staphylococcus aureus [4] were 80.5 mg/kg, over 120 mg/kg and 79.2 mg/kg, respectively.
Regarding `CSc1ccc(N2CC(CNC=O)OC2=O)cc1` (stereo not drawn) [Example 89], the MIC in assay [1] is 25 µg/mL (≈ 93.9 µM); with Escherichia coli [5], over 200 µg/mL. The ED50 was over 138 mg/kg in the assay on Escherichia coli [3] and 11 mg/kg with Staphylococcus aureus [4].
Turning to `C[S+]([O-])c1ccc(N2CC(CNC=O)OC2=O)cc1` (stereo not drawn) [Example 90], the MIC in assay [1] was 25 µg/mL (≈ 88.6 µM); in the assay on Escherichia coli [5] it was over 200 µg/mL. The ED50 in the assay with Escherichia coli [3] amounted to 98.4 mg/kg; with Staphylococcus aureus [4], 11.3 mg/kg.
On the same counts, the results for `C=CC(=O)NCC1CN(c2ccc(C(C)=O)cc2)C(=O)O1` (stereo not drawn) [Example 96] are 12.5 µg/mL (≈ 43.4 µM), over 50 µg/mL, 83.2 mg/kg and 7.9 mg/kg.
